Biological target: hFXR (Homo sapiens (Human), UniProt Q96RI1)
Experiment: In Vitro FXR Assay (TK)
Format: cell-based
Conditions: CV-1 cells transfected with hFXR, hRXR, TK-ECRE-luc and pCMX-YFP; incubated 18 hrs; luminescence; maximum efficacy <25% of the Fexarmine control classified as '+'
Method: Example B-1: In Vitro FXR Assay (TK)
CV-1 cells were seeded at a density of 2,000,000 cells in a T175 flask with DMEM+10% charcoal double-stripped FBS and incubated at 37° C. in 5% CO2 for 18 h (O/N).
After 18 h of incubation, the medium in the T175 flask was changed with fresh DMEM+10% charcoal super-stripped serum. In a polypropylene tube, 2500 μL OptiMEM (Life Technologies, Cat #31985-062) was combined with expression plasmids for hFXR, hRXR, TK-ECRE-luc and pCMX-YFP. The tube was then briefly vortexed and incubated at room temperature for 5 minutes. Transfection reagent (X-tremeGENE HP from Roche, Cat #06 366 236 001) was added to the OptiMEM/plasmid mixture vortexed and incubated at room temperature for 20 minutes. Following incubation, the transfection reagent/DNA mixture complex was added to cells in the T175 flask and the cells were incubated at 37° C. in 5% CO2 for 18 h (O/N).
Compounds were serially diluted in DMSO and added to transfected CV-1 cells. The cells were then incubated for 18 hrs. The next day cells were lysed and examined for luminescence.

hFXR, sequence (Q96RI1 whole entry): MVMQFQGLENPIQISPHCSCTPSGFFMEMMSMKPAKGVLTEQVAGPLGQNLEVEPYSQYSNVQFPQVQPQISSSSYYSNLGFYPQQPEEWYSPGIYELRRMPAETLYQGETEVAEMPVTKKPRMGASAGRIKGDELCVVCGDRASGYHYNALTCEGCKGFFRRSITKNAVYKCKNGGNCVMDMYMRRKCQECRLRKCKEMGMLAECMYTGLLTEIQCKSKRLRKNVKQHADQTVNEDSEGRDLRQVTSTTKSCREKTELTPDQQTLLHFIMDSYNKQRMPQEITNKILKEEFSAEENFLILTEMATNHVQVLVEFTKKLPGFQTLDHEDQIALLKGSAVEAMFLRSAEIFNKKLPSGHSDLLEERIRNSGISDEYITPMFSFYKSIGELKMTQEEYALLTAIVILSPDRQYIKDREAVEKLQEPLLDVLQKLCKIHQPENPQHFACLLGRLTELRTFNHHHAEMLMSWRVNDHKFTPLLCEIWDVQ
hFXR, sequence (P19793 whole entry partner): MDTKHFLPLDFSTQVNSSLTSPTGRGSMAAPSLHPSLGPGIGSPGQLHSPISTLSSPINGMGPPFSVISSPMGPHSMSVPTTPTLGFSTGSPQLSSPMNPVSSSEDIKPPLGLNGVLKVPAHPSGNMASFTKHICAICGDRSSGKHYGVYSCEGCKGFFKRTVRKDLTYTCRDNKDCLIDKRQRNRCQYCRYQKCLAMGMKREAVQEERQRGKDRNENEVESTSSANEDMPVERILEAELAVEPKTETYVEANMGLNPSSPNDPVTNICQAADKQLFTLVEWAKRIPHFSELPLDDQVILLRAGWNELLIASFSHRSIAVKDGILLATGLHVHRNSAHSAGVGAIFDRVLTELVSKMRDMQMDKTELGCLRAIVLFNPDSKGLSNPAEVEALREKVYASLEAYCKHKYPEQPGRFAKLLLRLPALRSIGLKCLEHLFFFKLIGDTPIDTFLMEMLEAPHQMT

SMILES | EC50 [nM]
COc1ccc([C@H]2CC[C@H](CN(c3cccc(C#Cc4cnn(C)c4)c3)C(=O)[C@H]3CC[C@H](O)CC3)CC2)cc1C [Compound 4, trans-4-Hydroxy-N-((trans-4-(4-methoxy-3-methylphenyl)cyclohexyl)methyl)-N-(3-((1-methyl-1H-pyrazol-4-yl)ethynyl)phenyl)cyclohexanecarboxamide] | ≤ 250
COc1ccc([C@H]2CC[C@H](CN(c3cccc(-c4cnn(C(C)C)c4)c3)C(=O)[C@H]3CC[C@H](O)CC3)CC2)cc1C#N [Compound 2.03, trans-N-((trans-4-(3-Cyano-4-methoxyphenyl)cyclohexyl)methyl)-4-hydroxy-N-(3-(1-isopropyl-1H-pyrazol-4-yl)phenyl)cyclohexanecarboxamide] | ≤ 250
COc1ccc([C@H]2CC[C@H](CN(c3cccc(-c4cnn(C5CC5)c4)c3)C(=O)[C@H]3CC[C@H](O)CC3)CC2)cc1C [Compound 3, trans-N-(3-(1-Cyclopropyl-1H-pyrazol-4-yl)phenyl)-4-hydroxy-N-((trans-4-(4-methoxy-3-methylphenyl)cyclohexyl)methyl)cyclohexanecarboxamide] | ≤ 250
COc1ccc([C@H]2CC[C@H](CN(c3cc(-c4cnn(C5CC5)c4)ccn3)C(=O)[C@H]3CC[C@H](O)CC3)CC2)cc1C [Compound 2.07, trans-N-(4-(1-Cyclopropyl-1H-pyrazol-4-yl)pyridin-2-yl)-4-hydroxy-N-((trans-4-(4-methoxy-3-methylphenyl)cyclohexyl)methyl)cyclohexanecarboxamide] | ≤ 250

Continued, values first:

EC50 [nM] | SMILES
≤ 250 | COc1ccc([C@H]2CC[C@H](CN(c3cccc(-c4cnn(C(F)F)c4)c3)C(=O)[C@H]3CC[C@H](O)CC3)CC2)cc1C [Compound 3.11, trans-N-(3-(1-(Difluoromethyl)-1H-pyrazol-4-yl)phenyl)-4-hydroxy-N-((trans-4-(4-methoxy-3-methylphenyl)cyclohexyl)methyl)cyclohexanecarboxamide]
≤ 250 | COc1ccc([C@H]2CC[C@H](CN(c3cccc(-c4cnn(C5COC5)c4)c3)C(=O)[C@H]3CC[C@H](O)CC3)CC2)cc1C [Compound 3.09, trans-4-Hydroxy-N-((trans-4-(4-methoxy-3-methylphenyl)cyclohexyl)methyl)-N-(3-(1-(oxetan-3-yl)-1H-pyrazol-4-yl)phenyl)cyclohexanecarboxamide]
≤ 250 | COc1ccc([C@H]2CC[C@H](CN(c3cc(-c4cnn(C(C)C)c4)ccn3)C(=O)[C@H]3CC[C@H](O)CC3)CC2)cc1C [Compound 5.11, trans-4-Hydroxy-N-(4-(1-isopropyl-1H-pyrazol-4-yl)pyridin-2-yl)-N-((trans-4-(4-methoxy-3-methylphenyl)cyclohexyl)methyl)cyclohexanecarboxamide]
≤ 250 | COc1ncc([C@H]2CC[C@H](CN(c3cc(-c4cnn(C(C)C)c4)ccn3)C(=O)[C@H]3CC[C@H](O)CC3)CC2)cc1C [Compound 5.29, trans-4-Hydroxy-N-(4-(1-Isopropyl-1H-pyrazol-4-yl)pyridin-2-yl)-N-((trans-4-(6-methoxy-5-methylpyridin-3-yl)cyclohexyl)methyl)cyclohexanecarboxamide]
≤ 250 | COc1ccc([C@H]2CC[C@H](CN(c3cc(-c4cnn(C(C)C)c4)ccn3)C(=O)[C@H]3CC[C@H](O)CC3)CC2)nc1C [Compound 5.19, trans-4-Hydroxy-N-(4-(1-isopropyl-1H-pyrazol-4-yl)pyridin-2-yl)-N-((trans-4-(5-methoxy-6-methylpyridin-2-yl)cyclohexyl)methyl)cyclohexanecarboxamide]
≤ 250 | CN(C)c1ccc(C23CCC(CN(c4cccc(-c5cnn(C6CC6)c5)c4)C(=O)[C@H]4CC[C@H](O)CC4)(CC2)CC3)cn1 [Compound 6.01, trans-N-(3-(1-Cyclopropyl-1H-pyrazol-4-yl)phenyl)-N-((4-(6-(dimethylamino)pyridin-3-yl)bicyclo[2.2.2]octan-1-yl)methyl)-4-hydroxycyclohexanecarboxamide]
